# Source: patent US12077503B2, “Substituted cyclic amides and their use as herbicides” (FMC CORPORATION, priority 2015, dated 2024)
# Assays:
# Type in all cases: in vivo
# [1] = tested on: barnyardgrass (Echinochloa crus-galli); test: Test C flooded paddy test; settings: Flood; for Plant response rating (scale of 0 to 100), Barnyardgrass: 0 is no effect, 100 is complete control
# Method in brief: (§1)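 Test compounds were dosed straight into the flood water of pots holding 2-leaf-stage plants, with water kept 3 cm above the soil. Greenhouse plants were scored visually against controls after 13 to 15 d, from 0 (no effect) to 100 (complete control).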
# [2] = tested on: sedge, umbrella (small-flower umbrella sedge, Cyperus difformis); test: Test C flooded paddy test; settings: Flood; for Plant response rating (scale of 0 to 100), Sedge, Umbrella: 0 is no effect, 100 is complete control
# Method in brief: as §1
# [3] = tested on: rice (Oryza sativa); test: Test C flooded paddy test; settings: Flood; for Plant response rating (scale of 0 to 100), Rice: 0 is no effect, 100 is complete control
# Method in brief: as §1
# [4] = tested on: rice flatsedge (Cyperus iria); test: Test F flooded paddy test; parameters: key: 0 = no effect, 100 = complete control; settings: Flood
# From the text: (§2) Plant species in the flooded paddy test consisted of one stand of 9 or 10 water seeded rice seedlings (Rice, W. S. Jap, Oryza sativa cv. ‘Japonica—M202’ or Rice, W. S. Ind, ‘Indica’), and two stands of 3 or 4 transplanted rice seedlings (Oryza sativa cv. ‘Japonica—M202’), Monochoria (Monochoria vaginalis), sedge, umbrella (small-flower umbrella sedge, Cyperus difformis), hardstem bulrush (Scirpus juncoides), redstem (purple redstem, Ammannia coccinea), rice flatsedge (Cyperus iria), bearded sprangletop (Leptochloa fascicularis), barnyardgrass (Echinochloa crus-galli), waterplantain (common waterplantain, Alisma plantago-aquatica), and late watergrass (Echinochloa oryzicola) grown to the 2 to 2.5 leaf stage for testing. Potted plants were grown in a greenhouse with day/night temperature settings of 30/27° C., and supplemental balanced lighting was provided to maintain a 16-hour photoperiod. At time of treatment, test pots were flooded to 3 cm above the soil surface, treated by application of test compounds directly to the paddy water, and then maintained at that water depth for the duration of the test. Effects of treatments on rice and weeds were visually evaluated by comparison to untreated controls after 21 d. Plant response ratings, summarized in Table F, are based on a scale of 0 to 100 where 0 is no effect and 100 is complete control. A dash (-) response means no test result.
# [5] = tested on: barnyardgrass (Echinochloa crus-galli); test: Test F flooded paddy test; parameters: key: 0 = no effect, 100 = complete control; settings: Flood
# From the text: as §2
# [6] = tested on: late watergrass (Echinochloa oryzicola); test: Test F flooded paddy test; parameters: key: 0 = no effect, 100 = complete control; settings: Flood
# From the text: as §2
# [7] = tested on: bearded sprangletop (Leptochloa fascicularis); test: Test F flooded paddy test; parameters: key: 0 = no effect, 100 = complete control; settings: Flood
# From the text: as §2
# [8] = tested on: sedge, umbrella (small-flower umbrella sedge, Cyperus difformis); test: Test F flooded paddy test; parameters: key: 0 = no effect, 100 = complete control; settings: Flood
# From the text: as §2
# [9] = tested on: Monochoria (Monochoria vaginalis); test: Test F flooded paddy test; parameters: key: 0 = no effect, 100 = complete control; settings: Flood
# From the text: as §2
# [10] = tested on: transplanted rice seedlings (Oryza sativa cv. ‘Japonica—M202’); test: Test F flooded paddy test; parameters: key: 0 = no effect, 100 = complete control; settings: Flood
# From the text: as §2
# [11] = tested on: water seeded rice seedlings (Rice, W. S. Jap, Oryza sativa cv. ‘Japonica—M202’); test: Test F flooded paddy test; parameters: key: 0 = no effect, 100 = complete control; settings: Flood
# From the text: as §2
# [12] = tested on: barnyardgrass (Echinochloa crus-galli); test: Test G Post-Emergence Protocol; settings: Echinochloa crus-galli, post-emergence, 312 h; for pest or weed control at 15.625 g/ha: 15.625 g ai/ha, evaluated after 13 days (100=total damage to plant; 0=no damage to plant), read-out: Barnyardgrass damage rating; for pest or weed control at 62.5 g/ha: 62.5 g ai/ha, read-out: Barnyardgrass damage rating (100=total damage to plant; 0=no damage to plant); for pest or weed control at 62.5 g/ha / pest or weed control at 250 g/ha: evaluated after 13 days; for pest or weed control at 250 g/ha: 250 g ai/ha, read-out: damage to plant, Barnyardgrass (100=total damage to plant; 0=no damage to plant)
# Description: (§3) Seeds of corn (Zea mays), giant foxtail (Setaria faberi), barnyardgrass (Echinochloa crus-galli), ivy-leaved morning glory (Ipomoea hederacea), redroot pigweed (Amaranthus retroflexus) and velvetleaf (Abutilon theophrasti) were sown in standard soil in pots. After cultivation for 8 days under controlled conditions in a glasshouse (at 24/16° C., day/night; 14 hours light; 65% humidity), the plants were sprayed with an aqueous spray solution derived from the formulation of the technical active ingredient in acetone/water (50:50) solution containing 0.5% Tween 20 (polyoxyethylene sorbitan monolaurate, CAS RN 9005-64-5) to give a final dose of 15.625, 62.5 or 250 g/ha of test compound.
# (§4) The test plants were then grown on under controlled conditions in a glasshouse (at 24/16° C., day/night; 14 hours light; 65% humidity) and watered twice daily. After 13 days the test was evaluated (100=total damage to plant; 0=no damage to plant). A dash (-) means no test result.
# [13] = tested on: velvetleaf (Abutilon theophrasti); test: Test G Post-Emergence Protocol; settings: Abutilon theophrasti, post-emergence, 312 h; for pest or weed control at 15.625 g/ha: 15.625 g ai/ha, evaluated after 13 days (100=total damage to plant; 0=no damage to plant), read-out: Velvetleaf damage rating; for pest or weed control at 62.5 g/ha: 62.5 g ai/ha, read-out: Velvetleaf damage rating (100=total damage to plant; 0=no damage to plant); for pest or weed control at 62.5 g/ha / pest or weed control at 250 g/ha: evaluated after 13 days; for pest or weed control at 250 g/ha: 250 g ai/ha, read-out: damage to plant, Velvetleaf (100=total damage to plant; 0=no damage to plant)
# Description: as §3, §4
# [14] = 31 g ai/ha, scale 0 to 100 (0 no effect, 100 complete control), 13 to 15 d
structure (smiles),measurement,setting,value
CN1CC(c2ccc(F)c(C(F)(F)F)c2)C(C(=O)Nc2ccccc2S(C)(=O)=O)C1=O (centres unmarked) [Compound 612],"Plant response rating (scale of 0 to 100), Barnyardgrass",[1]; 31 g ai/ha,0
same,"Plant response rating (scale of 0 to 100), Barnyardgrass",[1]; 62 g ai/ha,0
same,"Plant response rating (scale of 0 to 100), Barnyardgrass",[1]; 125 g ai/ha,0
same,"Plant response rating (scale of 0 to 100), Barnyardgrass",[1]; 250 g ai/ha,55
same,"Plant response rating (scale of 0 to 100), Sedge, Umbrella",[2]; 31 g ai/ha,0
same,"Plant response rating (scale of 0 to 100), Sedge, Umbrella",[2]; 62 g ai/ha,0
same,"Plant response rating (scale of 0 to 100), Sedge, Umbrella",[2]; 125 g ai/ha,0
same,"Plant response rating (scale of 0 to 100), Sedge, Umbrella",[2]; 250 g ai/ha,0
same,"Plant response rating (scale of 0 to 100), Rice",[3]; 31 g ai/ha,0
same,"Plant response rating (scale of 0 to 100), Rice",[3]; 62 g ai/ha,0
same,"Plant response rating (scale of 0 to 100), Rice",[3]; 125 g ai/ha,0
same,"Plant response rating (scale of 0 to 100), Rice",[3]; 250 g ai/ha,15
CN1CC(c2cccc(OC(F)F)c2)C(C(=O)Nc2ccc(F)cc2F)C1=O (centres unmarked) [Compound 617],"Plant response rating: Flatsedge, Rice",[4]; 32 g ai/ha,0
same,"Plant response rating: Flatsedge, Rice",[4]; 64 g ai/ha,0
same,"Plant response rating: Flatsedge, Rice",[4]; 125 g ai/ha,0
same,"Plant response rating: Flatsedge, Rice",[4]; 250 g ai/ha,0
same,Plant response rating: Barnyardgrass,[5]; 32 g ai/ha,60
same,Plant response rating: Barnyardgrass,[5]; 64 g ai/ha,85
same,Plant response rating: Barnyardgrass,[5]; 125 g ai/ha,100
same,Plant response rating: Barnyardgrass,[5]; 250 g ai/ha,100
same,"Plant response rating: Watergrass, Late",[6]; 32 g ai/ha,100
same,"Plant response rating: Watergrass, Late",[6]; 64 g ai/ha,100
same,"Plant response rating: Watergrass, Late",[6]; 125 g ai/ha,100
same,"Plant response rating: Watergrass, Late",[6]; 250 g ai/ha,100
same,"Plant response rating: Sprangletop, Brdd.",[7]; 32 g ai/ha,0
same,"Plant response rating: Sprangletop, Brdd.",[7]; 64 g ai/ha,80
same,"Plant response rating: Sprangletop, Brdd.",[7]; 125 g ai/ha,85
same,"Plant response rating: Sprangletop, Brdd.",[7]; 250 g ai/ha,90
same,"Plant response rating: Sedge, Umbrella",[8]; 32 g ai/ha,0
same,"Plant response rating: Sedge, Umbrella",[8]; 64 g ai/ha,0
same,"Plant response rating: Sedge, Umbrella",[8]; 125 g ai/ha,0
same,"Plant response rating: Sedge, Umbrella",[8]; 250 g ai/ha,0
same,Plant response rating: Monochoria,[9]; 32 g ai/ha,0
same,Plant response rating: Monochoria,[9]; 64 g ai/ha,40
same,Plant response rating: Monochoria,[9]; 125 g ai/ha,70
same,Plant response rating: Monochoria,[9]; 250 g ai/ha,100
same,"Plant response rating: Rice, Transplanted",[10]; 32 g ai/ha,0
same,"Plant response rating: Rice, Transplanted",[10]; 64 g ai/ha,0
same,"Plant response rating: Rice, Transplanted",[10]; 125 g ai/ha,0
same,"Plant response rating: Rice, Transplanted",[10]; 250 g ai/ha,0
same,"Plant response rating: Rice, Water Seeded",[11]; 32 g ai/ha,0
same,"Plant response rating: Rice, Water Seed.",[11]; 64 g ai/ha,0
same,"Plant response rating: Rice, Water Seed.",[11]; 125 g ai/ha,20
same,"Plant response rating: Rice, Water Seeded",[11]; 250 g ai/ha,60
CN1CC(c2cc(F)cc(F)c2)C(C(=O)Nc2cccc(F)c2F)C1=O (centres unmarked) [Compound 644],"Plant response rating, Barnyardgrass",[1]; [14],40
same,"Plant response rating (scale of 0 to 100), Barnyardgrass",[1]; 62 g ai/ha,60
same,"Plant response rating (scale of 0 to 100), Barnyardgrass",[1]; 125 g ai/ha,75
same,"Plant response rating (scale of 0 to 100), Barnyardgrass",[1]; 250 g ai/ha,90
same,"Plant response rating, Sedge, Umbrella",[2]; [14],0
same,"Plant response rating (scale of 0 to 100), Sedge, Umbrella",[2]; 62 g ai/ha,0
same,"Plant response rating (scale of 0 to 100), Sedge, Umbrella",[2]; 125 g ai/ha,0
same,"Plant response rating (scale of 0 to 100), Sedge, Umbrella",[2]; 250 g ai/ha,0
same,"Plant response rating, Rice",[3]; [14],0
same,"Plant response rating (scale of 0 to 100), Rice",[3]; 62 g ai/ha,0
same,"Plant response rating (scale of 0 to 100), Rice",[3]; 125 g ai/ha,0
same,"Plant response rating (scale of 0 to 100), Rice",[3]; 250 g ai/ha,0
CN1C[C@H](c2ccc(C(F)(F)F)cc2)[C@@H](C(=O)Nc2cccnc2F)C1=O [Compound 1396],pest or weed control at 15.625 g/ha,[12],80%
same,pest or weed control at 62.5 g/ha,[12],80%
same,pest or weed control at 250 g/ha,[12],80%
same,pest or weed control at 15.625 g/ha,[13],40%
same,pest or weed control at 62.5 g/ha,[13],30%
same,pest or weed control at 250 g/ha,[13],60%
CN1C[C@H](c2ccc(Cl)cc2)[C@@H](C(=O)Nc2cccc(F)n2)C1=O [Compound 1399],pest or weed control at 15.625 g/ha,[12],40%
same,pest or weed control at 62.5 g/ha,[12],70%
same,pest or weed control at 250 g/ha,[12],80%
same,pest or weed control at 15.625 g/ha,[13],0%
same,pest or weed control at 62.5 g/ha,[13],40%
same,pest or weed control at 250 g/ha,[13],40%
